Measured values: patent US10017534B2, “Method for producing Tebbe complex” (KURARAY CO., LTD., priority 2014, dated 2018)

Assay: Measurement of solubility of Tebbe complex in a solvent (atomic absorption analysis of filtrate)
Conditions: for Solubility of Tebbe complex / Titanium atom contained in filtrate: 25° C.
Method: The measurement of the solubility of the Tebbe complex in a solvent was performed in the following manner. That is, 4 mL of a solvent of every kind was added to 1 g of a Tebbe complex obtained in the following Preparation Example 1; a solution after stirring at 25° C. for one hour was filtered with a membrane filter of 0.2 μm; the filtrate was subjected to atomic absorption analysis using the aforementioned polarized Zeeman atomic absorption spectrophotometer; and a titanium atom concentration was measured.
The measurement of the solubility of the Tebbe complex in a solvent was performed in the following manner. That is, 4 mL of a solvent of every kind was added to 1 g of the Tebbe complex obtained in Preparation Example 1; a solution after stirring at 25° C. for one hour was filtered with a membrane filter of 0.2 μm; and the filtrate was subjected to atomic absorption analysis using the aforementioned polarized Zeeman atomic absorption spectrophotometer, thereby measuring a titanium atom concentration.
Using a glove box, 1.0 g of the brownish-red crystal b1 of the Tebbe complex obtained in the method of Preparation Example 1 was weighed in a 20-mL eggplant type flask in an argon atmosphere, and a rotator and 4 mL of dehydrated hexane were added, followed by stirring at 25° C. for one hour. Thereafter, the resultant was allowed to stand and then filtered with a membrane filter of 0.2 μm, and 1.0 g of a filtrate containing the Tebbe complex was subjected to atomic absorption analysis, thereby measuring the solubility of the Tebbe complex.

## μ-chloro-μ-methylene-bis(η^5-cyclopentadienyl)titanium dimethylaluminum [Tebbe complex]
1,4-dioxane
  Solubility of Tebbe complex: 1.43 mmol/g
  Titanium atom contained in filtrate: 6.84 % by mass
2-hexene
  Solubility of Tebbe complex: 0.27 mmol/g
  Titanium atom contained in filtrate: 1.29 % by mass
2-methylpentane
  Solubility of Tebbe complex: 0.21 mmol/g
  Titanium atom contained in filtrate: 1.01 % by mass
Aliphatic hydrocarbons of Test Examples 1 to 6, 25° C.
  solubility of the Tebbe complex in 1 g of the solvent: ≤ 0.5 mmol/g
Aromatic hydrocarbons and ether compounds of Comparative Test Examples 1 to 8, 25° C.
  solubility of the Tebbe complex in 1 g of the solvent: more than 0.5 mmol/g
benzene
  Solubility of Tebbe complex: 1.18 mmol/g
  Titanium atom contained in filtrate: 5.65 % by mass
cyclohexane
  Solubility of Tebbe complex: 0.45 mmol/g
  Titanium atom contained in filtrate: 2.15 % by mass
Cyclopentyl methyl ether
  Solubility of Tebbe complex: 1.29 mmol/g
  Titanium atom contained in filtrate: 6.17 % by mass
Diisopropyl ether
  Solubility of Tebbe complex: 0.60 mmol/g
  Titanium atom contained in filtrate: 2.87 % by mass
dodecane
  Solubility of Tebbe complex: 0.12 mmol/g
  Titanium atom contained in filtrate: 0.57 % by mass
heptane
  Solubility of Tebbe complex: 0.21 mmol/g
  Titanium atom contained in filtrate: 1.01 % by mass
hexane
  Solubility of Tebbe complex: 0.22 mmol/g
  Titanium atom contained in filtrate: 1.05 % by mass
Methylene chloride
  Solubility of Tebbe complex: 1.49 mmol/g
  Titanium atom contained in filtrate: 7.13 % by mass
p-xylene
  Solubility of Tebbe complex: 0.94 mmol/g
  Titanium atom contained in filtrate: 4.50 % by mass
tetrahydrofuran
  Solubility of Tebbe complex: 1.71 mmol/g
  Titanium atom contained in filtrate: 8.19 % by mass
toluene
  Solubility of Tebbe complex: 0.93 mmol/g
  Titanium atom contained in filtrate: 4.45 % by mass
